According to patent publication US7553966B2, “Glucocorticoid mimetics, methods of making them, pharmaceutical compositions, and uses thereof” (Boehringer Ingelheim Pharmaceuticals, Inc., priority 2002, dated 2009):

What was measured:
glucocorticoid receptor = assay: Glucocorticoid Receptor Cell Assays (agonist activity in one or more of the above assays); format: cell-based; conditions: qualitative statement; assay not specified
Experimental: B. Glucocorticoid Receptor Cell Assays
1. Induction of Aromatase in Fibroblasts (Cell Assay for Transactivation)
Dexamethasone, a synthetic ligand to the glucocorticoid receptor (GR), induces expression of aromatase in human foreskin fibroblast cells. The activity of aromatase is measured by the conversion of testosterone to estradiol in culture media.
On the day of the experiment, the media in the wells is replaced with fresh media. Cells are treated with test compounds to final concentrations of 10^−5 M to 10^−8 M, and testosterone to a final concentration of 300 ng/mL. Each well has a total volume of 100 μL. Samples are made in duplicates. Control wells include: (a) wells that receive testosterone only, and (b) wells that receive testosterone plus 2 μM of dexamethasone to provide maximum induction of aromatase. Plates are incubated at 37° C. overnight (15 to 18 hours), and supernatants are harvested at the end of incubation. […] The amount of estradiol is inversely proportional to the ELISA signals in each well. The extent of aromatase induction by test compounds is expressed as a relative percentage to dexamethasone. EC50 values of test compounds are derived by non-linear curve fitting.
2. Inhibition of IL-6 Production in Fibroblasts (Cell Assay for Transrepression)
Human foreskin fibroblast cells produce IL-6 in response to stimulation by pro-inflammatory cytokine IL-1.
On the next day, media in the wells is replaced with fresh media. Cells are treated with IL-1 (rhIL-1α, R&D Systems Cat. No. 200-LA) to a final concentration of 1 ng/mL, and with test compounds to final concentrations of 10^−5 M to 10^−8 M, in a total volume of 200 μL per well. Samples are done in duplicates. […] Positive control wells receive IL-1 only and represent maximum (or 100%) amount of IL-6 production. Plates are incubated at 37° C. overnight (15 to 18 hours), and supernatants are harvested at the end of incubation. IL-6 levels in the supernatants are determined by the ELISA kits for IL-6 (MedSystems Diagnostics GmbH, Vienna, Austria, Cat. No. BMS213TEN) according to manufacture's instructions. The extent of inhibition of IL-6 by test compounds is expressed in percentage relative to positive controls. IC50 values of test compounds are derived by non-linear curve fitting.
Evaluation of agonist or antagonist activity of compounds binding to the glucocorticoid receptor may be determined by any of the assays.
3. Modulation of Tyrosine Aminotransferase (TAT) Induction in Rat Hepatoma Cells
Testing of compounds for agonist or antagonist activity in induction of tyrosine aminotransferase (TAT) in rat hepatoma cells.
H4-II-E-C3 cells were incubated overnight in 96 well plates (20,000 cells/100 μL/well) in MEM medium containing 10% heat inactivated FBS and 1% nonessential amino acids. On the next day, cells were stimulated with the indicated concentrations of dexamethasone or test compound (dissolved in DMSO, final DMSO concentration 0.2%) for 18 hours. Control cells were treated with 0.2% DMSO. After 18 hours, the cells were lysed in a buffer containing 0.1% Triton X-100 and the TAT activity was measured in a photometric assay using tyrosine and alpha-ketoglutarate as substrates.
For measuring antagonist activity, the hepatoma cells were pre-stimulated by addition of dexamethasone (concentration ranges from 3×10^−9 M to 3×10^−8 M) shortly before the test compound was applied to the cells.
4. Modulation of MMTV-Luc Induction in HeLa Cells
Testing of compounds for agonist or antagonist activity in stimulation of MMTV-(mouse mammary tumor virus) promoter in HeLa cells.
Cells were cultured overnight in DMEM medium without phenol red, supplemented with 3% CCS (charcoal treated calf serum) and then transferred to 96 well plates (15,000 cells/100 μL/well).

[1] = biological target: T1, human glucocorticoid receptor (GR) complex (Homo sapiens, UniProt P04150); assay: Glucocorticoid Receptor Competitive Binding Assay (fluorescence polarization, TAMRA-labeled dexamethasone probe); conditions: qualitative statement; competition with TAMRA-labeled dexamethasone
T1 construct: made in house; host or cells: insect expression system (baculovirus lysate)
T1 sequence (P04150 1-777): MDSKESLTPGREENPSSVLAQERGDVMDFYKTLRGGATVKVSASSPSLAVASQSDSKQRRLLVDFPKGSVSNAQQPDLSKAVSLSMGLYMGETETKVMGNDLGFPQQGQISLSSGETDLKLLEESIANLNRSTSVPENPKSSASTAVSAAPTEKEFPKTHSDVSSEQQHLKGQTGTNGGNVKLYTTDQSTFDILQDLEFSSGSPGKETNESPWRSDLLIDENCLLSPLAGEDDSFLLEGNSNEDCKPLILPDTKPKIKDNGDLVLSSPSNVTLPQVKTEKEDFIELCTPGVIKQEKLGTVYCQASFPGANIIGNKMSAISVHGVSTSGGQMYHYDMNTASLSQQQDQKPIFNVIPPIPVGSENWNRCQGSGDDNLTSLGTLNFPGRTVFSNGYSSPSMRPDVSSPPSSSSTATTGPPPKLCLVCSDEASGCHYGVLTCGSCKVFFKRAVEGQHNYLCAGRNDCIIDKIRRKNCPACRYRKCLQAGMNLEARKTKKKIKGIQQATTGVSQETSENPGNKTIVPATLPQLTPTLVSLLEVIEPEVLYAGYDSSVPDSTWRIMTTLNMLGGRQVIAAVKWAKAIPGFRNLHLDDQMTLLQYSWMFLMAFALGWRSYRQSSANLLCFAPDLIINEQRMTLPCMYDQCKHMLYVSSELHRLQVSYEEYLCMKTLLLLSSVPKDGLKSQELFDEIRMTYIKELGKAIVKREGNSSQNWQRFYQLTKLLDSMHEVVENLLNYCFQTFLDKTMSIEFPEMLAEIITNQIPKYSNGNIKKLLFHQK
Procedure, shortened: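 Competition with TAMRA-dexamethasone for a human GR complex expressed in insect cells, read by fluorescence polarization. Buffer was 10 mM TES, 50 mM KCl, 20 mM Na2MoO4, 1.5 mM EDTA, 0.04% CHAPS, 10% glycerol, 1 mM DTT, pH 7.4.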

Row | SMILES | activity as agonists of the glucocorticoid receptor function in one or more of the above assays (glucocorticoid receptor) | activity in the GR binding assay [1]
1 | CC(C)(CC(O)(Cc1ccnc2ccccc12)C(F)(F)F)c1cc(Br)ccc1O (stereo not shown) [4-Bromo-2-(4,4,4-trifluoro-3-hydroxy-1,1-dimethyl-3-quinolin-4-ylmethylbutyl)phenol] | potent agonists | potent activity
2 | CC(C)(CC(O)(Cn1cc(C#N)c2ccccc21)C(F)(F)F)c1cccc2c1OCC2 (stereo not shown) | potent agonists | –
3 | Cc1ccc(F)cc1C(C)(C)CC(O)(Cc1cc2ccccc2[nH]1)C(F)(F)F (stereo not shown) [1,1,1-Trifluoro-4-(5-fluoro-2-methylphenyl)-2-(1H-indol-2-ylmethyl)-4-methylpentan-2-ol] | potent agonists | potent activity
4 | CC(C)(CC(O)(Cc1cc2ccncc2[nH]1)C(F)(F)F)c1ccc(F)cc1O (stereo not shown) [5-Fluoro-2-[4,4,4-trifluoro-3-hydroxy-1,1-dimethyl-3-(1H-pyrrolo[2,3-c]pyridin-2-ylmethyl)butyl]phenol] | potent agonists | potent activity
5 | COc1cc(F)c(Br)cc1C(C)(C)CC(O)(Cc1ccnc2ccccc12)C(F)(F)F (stereo not shown) [4-(5-Bromo-4-fluoro-2-methoxyphenyl)-1,1,1-trifluoro-4-methyl-2-quinolin-4-ylmethylpentan-2-ol] | potent agonists | potent activity
6 | CC(C)(CC(O)(Cc1ccnc2ccccc12)C(F)(F)F)c1cccc(C(F)(F)F)c1 (stereo not shown) [1,1,1-Trifluoro-4-methyl-2-quinolin-4-ylmethyl-4-(3-trifluoromethylphenyl)pentan-2-ol] | potent agonists | potent activity
7 | CC(C)(CC(O)(Cc1cc2ccccc2[nH]1)C(F)(F)F)c1cccc2c1OCC2 (stereo not shown) [4-(2,3-dihydrobenzofuran-7-yl)-1,1,1-trifluoro-2-(1H-indol-2-ylmethyl)-4-methylpentan-2-ol] | potent agonists | potent activity
8 | Cc1cc2c(c(C(C)(C)CC(O)(Cc3cc4ccccc4[nH]3)C(F)(F)F)c1)OCC2 (stereo not shown) [1,1,1-Trifluoro-2-(1H-indol-2-ylmethyl)-4-methyl-4-(5-methyl-2,3-dihydrobenzofuran-7-yl)pentan-2-ol] | potent agonists | potent activity
9 | CC(C)(CC(O)(Cc1ccnc2ccccc12)C(F)(F)F)c1ccc(F)cc1O (stereo not shown) [5-Fluoro-2-(4,4,4-trifluoro-3-hydroxy-1,1-dimethyl-3-quinolin-4-ylmethylbutyl)phenol] | potent agonists | potent activity
10 | CC(C)(CC(O)(Cc1cc2ccncc2[nH]1)C(F)(F)F)c1cc(F)ccc1O (stereo not shown) [4-Fluoro-2-[4,4,4-trifluoro-3-hydroxy-1,1-dimethyl-3-(1H-pyrrolo[2,3-c]pyridin-2-ylmethyl)butyl]phenol] | potent agonists | potent activity
11 | CC(C)(CC(O)(Cc1ccnc2ccccc12)C(F)(F)F)c1cc(F)cc2c1OCC2 (stereo not shown) [1,1,1-Trifluoro-4-(5-fluoro-2,3-dihydrobenzofuran-7-yl)-4-methyl-2-quinolin-4-ylmethylpentan-2-ol] | potent agonists | potent activity
12 | Cc1cc(C#N)cc2[nH]c(CC(O)(CC(C)(C)c3cc(F)ccc3O)C(F)(F)F)cc12 (stereo not shown) [2-[4-(5-Fluoro-2-hydroxyphenyl)-2-hydroxy-4-methyl-2-trifluoromethylpentyl]-4-methyl-1H-indole-6-carbonitrile] | potent agonists | potent activity
13 | COc1ccc(F)cc1C(C)(C)CC(O)(Cc1[nH]c2cnccc2c1C)C(F)(F)F (stereo not shown) [1,1,1-Trifluoro-4-(5-fluoro-2-methoxyphenyl)-4-methyl-2-(3-methyl-1H-pyrrolo[2,3-c]pyridin-2-ylmethyl)pentan-2-ol] | potent agonists | potent activity
14 | CC(C)(CC(O)(Cc1[nH]c2ccccc2c1C#N)C(F)(F)F)c1cc(F)cc2c1OCC2 (stereo not shown) [2-[4-(5-Fluoro-2,3-dihydrobenzofuran-7-yl)-2-hydroxy-4-methyl-2-trifluoromethylpentyl]-1H-indole-3-carbonitrile] | potent agonists | potent activity
15 | CC(C)(CC(O)(Cc1cc2ccccc2[nH]1)C(F)(F)F)c1cc(Br)cc2c1OCC2 (stereo not shown) [4-(5-Bromo-2,3-dihydrobenzofuran-7-yl)-1,1,1-trifluoro-2-(1H-indol-2-ylmethyl)-4-methylpentan-2-ol] | potent agonists | potent activity
16 | CC(C)(CC(O)(Cc1[nH]c2ccccc2c1C#N)C(F)(F)F)c1cccc2c1OCC2 (stereo not shown) [2-[4-(2,3-Dihydrobenzofuran-7-yl)-2-hydroxy-4-methyl-2-trifluoromethylpentyl]-1H-indole-3-carbonitrile] | potent agonists | –
17 | CC(C)(CC(O)(Cc1cc2cc(C#N)ccc2[nH]1)C(F)(F)F)c1cccc2c1OCC2 (stereo not shown) | potent agonists | –
18 | COc1ccc(F)cc1C(C)(C)CC(O)(Cc1cc2ccccc2[nH]1)C1CC1 (stereo not shown) [2-Cyclopropyl-4-(5-fluoro-2-methoxyphenyl)-1-(1H-indol-2-yl)-4-methylpentan-2-ol] | agonists | –
19 | COc1ccc(Br)cc1C(C)(C)CC(O)(Cc1cc2c(C)cc(C#N)cc2[nH]1)C(F)(F)F (stereo not shown) | potent agonists | –
20 | Cc1ccc(F)cc1C(C)(C)CC(O)(Cc1cc2ccncc2[nH]1)C(F)(F)F (stereo not shown) [1,1,1-Trifluoro-4-(5-fluoro-2-methylphenyl)-4-methyl-2-(1H-pyrrolo[2,3-c]pyridin-2-ylmethyl)pentan-2-ol] | potent agonists | –
